Measured values from ChEMBL document CHEMBL6109110, “Novel cationic dihydropyrrol-2-one compounds as antimicrobial agents and quorum sensing inhibitors” (Bioorg Med Chem, 2025).
In brackets after ≈: the same amount, converted by molar mass. Activity calls are given as the source filed them. The rule behind the calls is not given here.

Assays:
[1] = test system: Escherichia coli; experiment: Antibacterial activity against Escherichia coli K12 measured after 18 to 24 hrs by broth microdilution method; type: functional; conditions: time 18-24 hrs
[2] = test system: Pseudomonas aeruginosa; experiment: Antibacterial activity against Pseudomonas aeruginosa PAO1 measured after 18 to 24 hrs by broth microdilution method; type: functional; conditions: time 18-24 hrs
[3] = target: T1, Transcriptional activator protein LasR (Pseudomonas aeruginosa (strain ATCC 15692 / PAO1 / 1C / PRS 101 / LMG12228)) (UniProt P25084); experiment: Inhibition of LasR quorum sensing system in Pseudomonas aeruginosa MH602 expressing PlasB::gfp assessed as reduction in GFP expression at 16 uM incubated for 15 hrs by fluorescence microplate reader analysis relative to control
T1 sequence (whole entry): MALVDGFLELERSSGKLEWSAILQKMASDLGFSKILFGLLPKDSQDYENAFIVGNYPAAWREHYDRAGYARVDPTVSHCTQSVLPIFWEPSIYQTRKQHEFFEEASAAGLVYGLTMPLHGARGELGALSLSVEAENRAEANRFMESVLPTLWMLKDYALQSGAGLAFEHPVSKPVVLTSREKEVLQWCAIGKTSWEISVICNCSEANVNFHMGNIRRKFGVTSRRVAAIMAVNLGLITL

[4] = Inhibition of quorum sensing system in Pseudomonas aeruginosa PAO1 assessed as reduction in pyocyanin production at 64 uM measured after 48 hrs relative to control
[5] = test system: Staphylococcus aureus; experiment: Antibacterial activity against Staphylococcus aureus isolate 38 measured after 18 to 24 hrs by broth microdilution method; type: functional; conditions: time 18-24 hrs
[6] = Hemolytic activity in horse RBC measured after 4 hrs; type: toxicity, cell-based, Equus caballus, Erythrocyte; conditions: horse red blood cells
[7] = test system: Pseudomonas aeruginosa; experiment: Growth inhibition of Pseudomonas aeruginosa MH602 expressing PlasB::gfp at 16 uM relative to control; type: functional; conditions: read-out: GI
[8] = Hemolytic activity in horse RBC assessed as hemolysis at 500 uM measured after 4 hrs relative to control; type: toxicity, cell-based, Equus caballus, Erythrocyte; conditions: horse red blood cells, read-out: Activity

Row | MIC90 [1] | MIC90 [2] | inhibition [3] | inhibition [4] | MIC90 [5] | Compound | HC50 at 4 h [6] | inhibition of growth at 16 µM [7] | hemolysis at 4 h, 500 µM [8]
1 | > 250 µM | > 250 µM | 23.4% | inactive | 250 µM | C=C1C(c2ccc(Cl)cc2)=CC(=O)N1CC[n+]1ccn(C)c1 |  |  | 
2 | 125 µM (≈ 38.2 µg/mL) | 250 µM (≈ 76.3 µg/mL) | 59.9% |  | 64 µM (≈ 19.5 µg/mL) | C=C1C(c2ccc(F)cc2)=CC(=O)N1CCCSC(=N)N | > 500 µM |  | 
3 | > 250 µM | > 250 µM | 14.6% | inactive | > 250 µM | C=C1C(c2ccc(F)cc2)=CC(=O)N1CCC[n+]1ccn(C)c1 |  |  | 
4 | 64 µM (≈ 23.4 µg/mL) | 250 µM (≈ 91.6 µg/mL) | 48.3% |  | 64 µM (≈ 23.4 µg/mL) | C=C1C(c2ccc(Br)cc2)=CC(=O)N1CCCSC(=N)N |  | < 20% | 
5 | > 250 µM | > 250 µM | 40.8% |  | 125 µM (≈ 38.5 µg/mL) | C=C1C(c2ccc(Cl)cc2)=CC(=O)N1CCSC(=N)N |  |  | 
6 | 32 µM (≈ 11.3 µg/mL) | 125 µM (≈ 44 µg/mL) | 57.1% |  | 16 µM (≈ 5.64 µg/mL) | C=C1C(c2ccc(Br)cc2)=CC(=O)N1CCSC(=N)N | > 500 µM |  | 22%
7 | > 250 µM | > 250 µM | 17.3% | inactive | 250 µM | C=C1C(c2ccc(Cl)cc2)=CC(=O)N1CCC[n+]1ccn(C)c1 |  |  | 
8 | 64 µM (≈ 20.6 µg/mL) | 250 µM (≈ 80.5 µg/mL) | 53.1% | 70% | 64 µM (≈ 20.6 µg/mL) | C=C1C(c2ccc(Cl)cc2)=CC(=O)N1CCCSC(=N)N |  |  | 
9 | 125 µM | > 250 µM | 0% | inactive | 32 µM | C=C1C(c2ccc(Br)cc2)=CC(=O)N1CCC[n+]1ccn(C)c1 | > 31 µM |  | 
10 | > 250 µM | > 250 µM | 0% |  | 125 µM (≈ 35.9 µg/mL) | C=C1C(c2ccccc2)=CC(=O)N1CCCSC(=N)N |  | > 20% | 
11 | 250 µM | > 250 µM | 14.4% | inactive | 250 µM | C=C1C(c2ccccc2)=CC(=O)N1CC[n+]1ccn(C)c1 |  |  | 
12 | > 250 µM | > 250 µM | 17.6% | inactive | > 250 µM | C=C1C(c2ccccc2)=CC(=O)N1CCC[n+]1ccn(C)c1 |  |  | 
13 | 250 µM | > 250 µM | 0% | inactive | 64 µM | C=C1C(c2ccc(Br)cc2)=CC(=O)N1CC[n+]1ccn(C)c1 |  |  | 
14 | 250 µM (≈ 72.8 µg/mL) | > 250 µM | 73.4% | 70% | 250 µM (≈ 72.8 µg/mL) | C=C1C(c2ccc(F)cc2)=CC(=O)N1CCSC(=N)N |  | 16% | 
15 | > 250 µM | > 250 µM | 31.4% | inactive | > 250 µM | C=C1C(c2ccc(F)cc2)=CC(=O)N1CC[n+]1ccn(C)c1 |  |  | 

More lines, now with the values behind:

Row | Compound | MIC90 [1] | MIC90 [2] | inhibition [3] | inhibition [4] | MIC90 [5] | HC50 at 4 h [6] | inhibition of growth at 16 µM [7] | hemolysis at 4 h, 500 µM [8]
16 | C=C1C(c2ccccc2)=CC(=O)N1CC[Se]C(=N)N | > 250 µM | > 250 µM | 30.5% |  | > 250 µM |  |  | 
17 | C=C1C(c2ccc(F)cc2)=CC(=O)N1CC[Se]C(=N)N | 250 µM (≈ 84.6 µg/mL) | > 250 µM | 64.5% |  | 64 µM (≈ 21.6 µg/mL) |  |  | 
18 | C=C1C(c2ccc(Cl)cc2)=CC(=O)N1CC[Se]C(=N)N | 125 µM (≈ 44.3 µg/mL) | > 250 µM | 72.8% |  | 64 µM (≈ 22.7 µg/mL) | > 500 µM | 15% | 
19 | O=C1C=C(Br)/C(=C/Br)O1 |  |  | 62.5% |  |  |  |  | 
20 | C=C1C(c2ccc(Cl)cc2)=CC(=O)N1CCC[Se]C(=N)N | 125 µM (≈ 46.1 µg/mL) | > 250 µM | 56.2% |  | 64 µM (≈ 23.6 µg/mL) | > 500 µM |  | 
21 | C=C1C(c2ccc(Br)cc2)=CC(=O)N1CCC[Se]C(=N)N | 64 µM (≈ 26.4 µg/mL) | 250 µM (≈ 103 µg/mL) | 53.2% |  | 32 µM (≈ 13.2 µg/mL) | > 250 µM |  | 
22 | C=C1C(c2ccccc2)=CC(=O)N1CCSC(=N)N | > 250 µM | > 250 µM | 9.5% | > 60% | > 250 µM |  | > 20% | 
23 | C=C1C(c2ccccc2)=CC(=O)N1CCC[Se]C(=N)N | > 250 µM | > 250 µM | 51.5% |  | 250 µM (≈ 83.6 µg/mL) |  |  | 
24 | C=C1C(c2ccc(Br)cc2)=CC(=O)N1CC[Se]C(=N)N | 125 µM (≈ 49.9 µg/mL) | > 250 µM | 69.4% | 70% | 64 µM (≈ 25.5 µg/mL) |  |  | 
25 | C=C1C(c2ccc(F)cc2)=CC(=O)N1CCC[Se]C(=N)N | 250 µM (≈ 88.1 µg/mL) | > 250 µM | 41.9% |  | 250 µM (≈ 88.1 µg/mL) |  |  | 
